# Laboratory results taken from patent US6492124B1, “Trance activated signal transduction pathways in osteoclasts” (The Rockefeller University, priority 1999, dated 2002).
# System: PKB
# Experiment: PKB activation in dendritic cells (phospho-PKB Western blot)
# Type: cell-based, mouse
# Experimental: FIG. 1. TRANCE activates p44/42 ERK, NF-κB and PKB in osteoclasts and dendritic cells. (A) Mature bone marrow-derived osteoclasts were stimulated for the indicated times with recombinant hCD8-TRANCE (TRANCE; 1 μg/ml). Levels of phosphorylated forms of p44/p42 ERK (p44 ERK^P and p42 ERK^P), IκBα (IκB-α^P) and PKB (PKB^P) in whole cell extracts were determined using phospho-peptide-specific antibodies as indicated in the figure. The membranes were stripped and incubated with antibodies against the p44/p42 ERK, IκB-α, and PKB as indicated to confirm that similar amounts of whole cell extracts were analyzed. Note the decrease of IκB-α after 10 min of treatment due to its degradation. (B) as in (A) except the use of mature bone marrow-derived dendritic cells instead of osteoclasts.
# FIG. 2. TRANCE-induced PKB activation in osteoclasts and dendritic cells is blocked by inhibitors of PI3-kinase, tyrosine kinases and Src family kinases. (A) Osteoclasts were serum starved and then pretreated for 90 min with LY294002 (10 μM), Herbimycin A (Herb. A; 10 μM), and PP1 (10 μM) inhibitors which are specific for PI3-kinase, PTKs, and Src-family kinases, respectively, were stimulated for indicated times with TRANCE (1 μg/ml). Levels of phosphorylated p44/p42 ERK, PKB, and IκB-α were determined as described in FIG. 1. Cells pretreated with vehicle (DMSO) were used as a negative control. (B) as in (A) except the use of mature bone marrow-derived dendritic cells.
# FIG. 6. Cytokine receptors that engage TRAF6 activate PKB through Src-family kinases. (A) Dendritic cells were treated with TNF (10 ng/ml), TRANCE (5 μg/ml), LPS (50 μg/ml), or IL-1α (20 ng/ml) for the indicated times (min). The activation of PKB was determined in whole cell extracts using a phospho-PKB-specific antibody as described in FIG. 1. (B) Dendritic cells were pretreated with vehicle (DMSO) or the Src-family kinase inhibitor, PP1 (10 μM) for 90 minutes followed by a 15 minute treatment with TRANCE (5 μg/ml), LPS (50 μg/ml), or IL-1α (20 ng/ml) or no treatment at all (−). The activation of PKB was determined as described in FIG. 1.
# Primary cells and cell lines. Osteoclasts and macrophages were generated from bone marrow precursors as described (Wani, et al., Endocrinology, 140:[…], 1999). In brief, bone marrow cells from tibiae and femur of 4-6 week old mice (C57BL/6, Jackson Laboratories) were cultured overnight in media (α-MEM, 10% FCS) in the presence of CSF-1 (5 ng/ml). After 24 hours, non-adherent cells were harvested, washed, and further cultured in media with CSF-1 (50 ng/ml) plus TRANCE (10 ng/ml) to develop osteoclasts, or with CSF-1 alone to develop macrophages. Using these conditions, after 4 days of culture, greater than 95 percent of the adherent cells were osteoclasts or macrophages. For experiments described in this study, only adherent cells were used after extensive washing. Mature dendritic cells were generated from bone marrow precursors of 4-6 week old female C57BL/6 mice (C57BL/6, Jackson Laboratories) cultured in media (RPMI1640, 5% FBS) and GM-CSF (1:30 cultured supernatant from the J558 cell line, a gift from Dr. R. M. Steinman, The Rockefeller University) for 8 days as previously described (Inaba, et al., J. Exp. Med., 176:1693-1702, 1992). To generate osteoclasts and dendritic cells from c-Src deficient mice, spleen cells, which contain hematopoietic precursors due to extramedullary hematopoeisis, were substituted for bone marrow cells as previously described (Schwartzberg, et al., Genes Dev., 11:2835-2844, 1997). Mature spleen-derived dendritic cells were isolated from spleens treated with collagenase (40 U/ml; Boehinger Mannheim) and subjected to a Nycodenz centrifugation gradient (14.5%; Nycomed) to obtain low density cells. After allowing them adhere for 2 hours to a tissue culture dish, contaminating floater cells were washed away and mature dendritic cells were obtained by overnight culture.
# Cell stimulation, cell transfection and in vitro assays. […]
substance,measurement,setting,value
TNF-related activation-induced cytokine [TRANCE],PKB activation in dendritic cells stimulated with cytokine,"TNF 10 ng/ml, TRANCE 5 μg/ml, LPS 50 μg/ml, IL-1α 20 ng/ml, CD40L data not shown",activated
same,PKB activation in dendritic cells from c-Src−/− mice,"TRANCE-treated, compared with wild-type",not significantly reduced
same,time for which PKB activity was sustained,"dendritic cells, TRANCE stimulation",greater than 3 hours
same,phosphorylated form of PKB upon TRANCE stimulation,"dendritic cells, after 5 minutes, TRANCE 1 μg/ml",increase
